From ChEMBL document CHEMBL1144354, “Frontal affinity chromatography with MS detection of EphB2 tyrosine kinase receptor. 2. Identification of small-molecule inhibitors via coupling with virtual screening” (J Med Chem, 2005)
pIC50, pKd: −log10 of the molar value.

What was measured:
Ephrin type-B receptor 2 [1] = molecular target: T1, Ephrin type-B receptor 2 (Homo sapiens, UniProt P29323); test: Equilibrium binding constant for EPH receptor B2
T1 sequence (P29323 whole entry): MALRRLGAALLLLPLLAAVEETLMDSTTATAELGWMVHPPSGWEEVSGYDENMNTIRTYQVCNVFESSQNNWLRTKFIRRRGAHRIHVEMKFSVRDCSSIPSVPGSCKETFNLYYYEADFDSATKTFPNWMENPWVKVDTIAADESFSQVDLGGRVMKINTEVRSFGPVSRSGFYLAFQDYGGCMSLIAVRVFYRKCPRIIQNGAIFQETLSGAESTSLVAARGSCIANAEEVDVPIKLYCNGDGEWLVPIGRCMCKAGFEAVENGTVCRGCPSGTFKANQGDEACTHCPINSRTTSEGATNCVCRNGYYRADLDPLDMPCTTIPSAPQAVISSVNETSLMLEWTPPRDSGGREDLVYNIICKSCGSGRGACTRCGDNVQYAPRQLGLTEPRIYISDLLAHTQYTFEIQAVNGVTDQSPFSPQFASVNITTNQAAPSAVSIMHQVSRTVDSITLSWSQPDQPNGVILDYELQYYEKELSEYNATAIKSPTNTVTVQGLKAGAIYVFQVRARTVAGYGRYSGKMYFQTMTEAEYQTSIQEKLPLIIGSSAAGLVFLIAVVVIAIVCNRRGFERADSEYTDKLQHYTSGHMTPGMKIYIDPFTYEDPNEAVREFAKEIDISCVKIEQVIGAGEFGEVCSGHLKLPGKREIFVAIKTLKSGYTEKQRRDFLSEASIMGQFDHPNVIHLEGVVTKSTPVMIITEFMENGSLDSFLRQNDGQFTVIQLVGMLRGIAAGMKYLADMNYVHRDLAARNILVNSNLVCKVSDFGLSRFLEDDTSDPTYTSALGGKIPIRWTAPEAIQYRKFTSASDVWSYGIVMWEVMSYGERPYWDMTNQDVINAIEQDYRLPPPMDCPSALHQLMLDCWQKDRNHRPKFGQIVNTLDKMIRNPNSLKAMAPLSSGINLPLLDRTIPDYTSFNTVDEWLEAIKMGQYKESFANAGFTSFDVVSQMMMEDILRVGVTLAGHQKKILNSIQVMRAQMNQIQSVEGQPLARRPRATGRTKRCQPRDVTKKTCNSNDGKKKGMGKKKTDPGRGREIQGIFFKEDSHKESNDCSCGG

Ephrin type-B receptor 2 [2] = molecular target: T1, Ephrin type-B receptor 2; test: Inhibition of EPH receptor B2 using ELISA

| Structure (SMILES) | pKd (Ephrin type-B receptor 2 [1]) | pIC50 (Ephrin type-B receptor 2 [2]) |
| --- | --- | --- |
| O=C1C=C(Nc2ccc(O)cc2)C(=O)c2ccccc21 | – | 4.42 |
| CN(C)c1ccc(/C=C2/C(=O)Nc3ccccc32)cc1 | 4.71 | 4.56 |
| CC(C)(C)n1nc(-c2ccc(Cl)cc2)c2c(N)ncnc21 | 4.44 | 4.28 |

Next, values leading:

| pKd (Ephrin type-B receptor 2 [1]) | pIC50 (Ephrin type-B receptor 2 [2]) | Structure (SMILES) |
| --- | --- | --- |
| 5.62 | 5.92 | COc1cc2ncnc(Nc3cccc(O)c3)c2cc1OC |
| 5.09 | 4.99 | COc1cc2ncnc(Nc3cccc(Br)c3)c2cc1OC |
| 4.66 | 4.47 | CNc1ccc2c(Nc3cccc(Br)c3)ncnc2c1 |
| 4.23 | 4.07 | COc1cc2ncnc(Nc3ccc(Oc4ccccc4)cc3)c2cc1OC |
